Consider 6 molecules from publication PMC8178125, “The acyl chains of phosphoinositide PIP3 alter the structure and function of nuclear receptor steroidogenic factor-1” (Journal of Lipid Research, 2021).

5Fam = 5-carboxyfluorescein label on the N-terminus A value given as a limit tells only on which side of the number the result lay.

Assay [1] concerns the target T1, human apo-SF-1 LBD (Homo sapiens, UniProt Q13285, C247S/C412S).
T1 construct: human SF-1 LBD comprising amino acids 218–461 of human SF-1; 6X-HIS (N, cleaved yes); TEV site (N, cleaved yes); made in house; host or cells: E. coli BL21 (DE3)
Put plainly: Native gel (electromobility) shift assay of equilibrium phosphoinositide binding to apo-SF-1 LBD. The settings on record: for Kd: apo-SF-1 LBD 1 μM, 37°C 1 h, 1-site binding model, SEM, read-out: apparent Kd of phosphoinositide binding to SF-1 LBD. On the procedure: Apparent Kd interaction data of phosphoinositides was determined on human apo-SF-1 LBD by a previously described native gel shift assay ([21]) to monitor equilibrium binding to each phosphoinositide. Briefly, apo-SF-1 ligand binding domain was generated using an on-column washout procedure to remove bound phospholipid, wherein pure SF-1 bound to dipalmitoyl PIP3 was loaded onto a Mono Q column and washed with 1.0 L of 20 mM Hepes (8.0), 1 mM EDTA with 2 mM CHAPS at 2 ml/min to remove all bound phospholipid from SF-1 by on-column dilution. The buffer was then changed into 20 mM Hepes (8.0), 1 mM EDTA to remove detergents, and apo-SF-1 eluted using a ammonium acetate gradient, pooled, protein concentration quantitated, and then used in the phosphoinositide binding assay. For the phosphoinositide binding assay, each phosphoinositide was resuspended in water, sonicated, diluted, and stored under nitrogen at 4°C. Phosphoinositides were always re-sonicated immediately before use in binding assays. Two microliters of serially diluted phosphoinositide were added to binding reactions of 25 μl total volume, containing 1 μM final concentration of apo-SF-1 LBD in 20 mM Hepes (8.0), 1 mM EDTA, and 10 mM ammonium acetate in 200 μl polypropylene PCR strip tubes. Binding reactions were incubated at 37°C for 1 h in a PCR thermocycler with a heated reaction cover, the reaction mixed with 3 μl native loading buffer (40% glycerol, 0.005% Ponceau S) and run on a 4% to 16% polyacrylamide Bis-Tris NativePage™ gel (Invitrogen). After fixation and silver staining (BioRad), gels were scanned, the phosphoinositide-shifted band quantitated using NIH image, and apparent Kd determined by nonlinear curve fit to a single-site binding model in GraphPad Prism. Data represent at least three independent replicates.

The target in the next assay is T2, human SF-1 LBD (2CS) (Homo sapiens, UniProt Q13285, C247S/C412S).
T2 construct: human SF-1 LBD (218–461) 2CS “Cys-lite” mutant (C247S and C412S); 6X-HIS (N, cleaved yes); TEV site (N, cleaved yes); made in house; host or cells: E. coli BL21 (DE3); peptide purchased from New England Peptide
The experiment in a line: Fluorescence polarization coactivator binding assay: 5Fam-labeled PGC1α peptide binding to lipid-complexed SF-1 LBD. The settings on record: SF-1 bound to dioleoyl vs dipalmitoyl PIP3. From the text: The same human SF-1 LBD (2CS) construct used for crystallization was complexed with dioleoyl PIP3 and subjected to anion exchange chromatography to separate PIP3-bound species from bacterial phospholipid-bound species. PIP3-bound SF-1 elutes during anion exchange chromatography at higher ionic strength than bacterial phospholipid-bound SF-1 because of the negatively charged phosphates on the PIP3 headgroup. The PIP3-bound and bacterial phospholipid–bound fractions were pooled and concentrated as above, then serially diluted into assay buffer (20 mM Hepes [7.5], 150 mM NaCl) in black-walled 384-well nonprotein binding plates, with 50 μM SF-1 LBD as the highest concentration and a constant 25 μL volume in each well. Reproducibility in the FP assay critically relies on using nonprotein binding plates. To each well, an equal volume of N-terminal 5Fam-labeled PGC1α co-activator peptide (5Fam-EEPSLLKKLLLAPA-OH) was added to a final concentration of 100 nM fluorescently labeled peptide (purchased from New England Peptide). After a 1-h incubation nutating at room temperature in the dark, fluorescence polarization was measured on the Biotek Neo Plate reader at the Vanderbilt High-throughput Screening Center. Data were fit to a standard one-site binding model in GraphPad Prism, and all data represent at least three independent replicates.
(In general: Polarisation of emitted light reports the rotation of a fluorescent probe.)

The target in the next assay is T3, SF-1 LBD (Homo sapiens, UniProt Q13285, C247S/C412S).
T3 construct: human SF-1 LBD comprising amino acids 218–461 of human SF-1; 6X-HIS (N, cleaved yes); TEV site (N, cleaved yes); made in house; host or cells: E. coli BL21 (DE3)
The experiment in a line: Limited trypsin proteolytic sensitivity assay of SF-1 LBD bound to PIP3. The settings on record: trypsin:SF-1 1:500 (w/w), 25°C, 60 min time course; compared with PIP3(16:0/16:0). As for the experimental part: Protease selection for limited digestion was carried out by adding elastase, thermolysin, proteinase K, or trypsin to SF-1 LBD in a protease:SF-1 LBD ratio of 1:500 (w/w), followed by incubation at 30 or 60 min and 10% SDS-PAGE followed by Coomassie stain. For determination of SF-1 proteolysis bound by PIP3(16:0/16:0) or PIP3(18:1/18:1), equal amounts of the purified SF-1 LBD used for crystallization without coactivator peptide were incubated with PIP3(16:0/16:0) or PIP3(18:1/18:1) at a protein:PIP3 molar ratio of 1:10, overnight at room temperature, a procedure determined in previous publications to result in complete PIP3 binding to SF-1 LBD. Limited proteolysis analysis was carried out by adding trypsin (Sigma) to SF1-PIP3 in a trypsin:SF-1 ratio of 1:500 (w/w), followed by incubation at 25°C for a 60 min time course. […] Gels were scanned, and the band intensities quantified using Image J (NIH). […]
(also on this page, place not known: Time (min) Relative percentage protection 0.0002*** Supplemental Figure S1:SF-1 dioleoyl is dipalmitoyl PIP3(16:0/16:0). Coomassie-stained trypsin-digested PIP3 species, trypsin treated 60-minute time course, reactions boiled run gel. B.Relative quantitation expressed percentage signal from in lane, quantified using graph comparing either PIP3(16:0/16:0) indicated PIP3(18:1/18:1) indicated trypsin Sidak’smultiple n=3). […]

For assay [2], the target named is T1, human apo-SF-1 LBD. Also noted: method as in PMID 25288771. The settings on record: previous work; cited from earlier work.
The target in assay [3] is T4, human SF-1 ligand binding domain (218–461) 2CS Cys-lite mutant (C247S and C412S) (human, UniProt Q13285 218-461, C247S | C412S).
T4 construct: also called SF-1 LBD; SF-1 LBD (2CS); not shown: His6, N-terminal, cleaved
Put plainly: fluorescence polarisation; SF-1 LBD bound to bacterial phospholipid serially diluted from 50 uM; 100 nM 5Fam-PGC1α peptide; 20 mM Hepes (7.5), 150 mM NaCl; 1 h at room temperature; one-site binding model; apparent Kd. The settings on record: both partners purified.

The target in assay [4] is T5, human SF-1 LBD (218-461) 2CS Cys-lite mutant (C247S and C412S) (human, UniProt Q13285 218-461, C247S | C412S).
T5 construct: The His tag was removed with TEV; also called steroidogenic factor-1; NR5A1; source: complexed with dioleoyl PIP3, dipalmitoyl PIP3 or co-purifying bacterial phospholipid; not shown: His6, N-terminal, cleaved
The experiment in a line: crystal structure; SF-1 LBD complexed with dioleoyl PIP3(18:1/18:1), then with 3-fold molar excess of PGC1α peptide; sitting drop, 20% PEG 3350, 0.2 M magnesium formate, 20°C. The settings on record: both partners purified.

For assay [5], the target named is T5, human SF-1 LBD (218-461) 2CS Cys-lite …. The experiment in a line: fluorescence polarisation; SF-1 LBD complexed with dioleoyl PIP3(18:1/18:1), serially diluted from 50 μM; 100 nM 5Fam-labeled peptide; 20 mM Hepes (7.5), 150 mM NaCl; 1 h at room temperature; one-site binding model. The settings on record: both partners purified.
The target is the same in assay [6]. Put plainly: fluorescence polarisation; SF-1 LBD complexed with dipalmitoyl PIP3(16:0/16:0); 100 nM 5Fam-labeled peptide; 20 mM Hepes (7.5), 150 mM NaCl; 1 h at room temperature; one-site binding model; apparent. The settings on record: both partners purified.

T1 sequence (Q13285 218-461 C247S/C412S): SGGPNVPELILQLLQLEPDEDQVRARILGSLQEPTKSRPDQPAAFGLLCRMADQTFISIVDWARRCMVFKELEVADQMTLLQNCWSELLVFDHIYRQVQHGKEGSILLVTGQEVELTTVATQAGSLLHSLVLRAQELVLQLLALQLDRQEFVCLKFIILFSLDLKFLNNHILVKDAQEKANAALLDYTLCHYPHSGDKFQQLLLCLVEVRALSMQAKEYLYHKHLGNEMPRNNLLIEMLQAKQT
T5 sequence (Q13285 218-461 C247S/C412S): as above
T2 sequence (Q13285 218-461 C247S/C412S): as above
T4 sequence (Q13285 218-461 C247S/C412S): as above
T3 sequence (Q13285 218-461 C247S/C412S): as above

As for `CCCCCCCC/C=C\CCCCCCCC(=O)OC[C@H](COP(=O)(O)OC1C(O)C(OP(=O)(O)O)C(OP(=O)(O)O)C(OP(=O)(O)O)C1O)OC(=O)CCCCCCC/C=C\CCCCCCCC` (stereo partly drawn) [dioleoyl PIP3, 1,2-di-(9Z-octadecenoyl)-sn-glycero-3-[phosphoinositol-3,4,5-trisphosphate]], the Kd at human apo-SF-1 LBD [1] is 71 ± 10 nM. Besides, the “fold lower apparent Kd than dipalmitoyl (16:0/16:0) PIP3” value at human apo-SF-1 LBD [1] (dioleoyl vs dipalmitoyl PIP3 binding to SF-1 LBD) stood at 3 fold. Moreover, the “fold poorer affinity of PGC1α coactivator peptide for SF-1 compared with dipalmitoyl PIP3” value is on record as 6 fold on human SF-1 LBD (2CS) and at least 5 fold at human SF-1 LBD (2CS) (listed as Dioleoyl PIP3(18:1/18:1)). Besides, at SF-1 LBD, the “trypsin protease sensitivity of SF-1 bound to the lipid” value is “increased trypsin protease sensitivity”.

Regarding `CCCCCCCCCCCCCCCC(=O)OCC(COP(=O)(O)OC1C(O)C(O)C(OP(=O)(O)O)C(OP(=O)(O)O)C1O)OC(=O)CCCCCCCCCCCCCCC` (stereo not drawn) [dipalmitoyl (16:0/16:0) PIP2], the Kd on human apo-SF-1 LBD [1] came out at 348 ± 42 nM.

`CCCCCCCCCCCCCCCC(=O)OC[C@H](COP(=O)(O)OC1C(O)C(OP(=O)(O)O)C(OP(=O)(O)O)C(OP(=O)(O)O)C1O)OC(=O)CCCCCCCCCCCCCCC` (stereo partly drawn) [dipalmitoyl PIP3, 1,2-dipalmitoyl-sn-glycero-3-[phosphoinositol-3,4,5-triphophosate]]: the “affinity for SF-1” value at human apo-SF-1 LBD [2] is recorded as “nanomolar affinity”. Moreover, the Kd at human apo-SF-1 LBD [1] was found to be 130 ± 14 nM.

B1: N-terminal 5Fam-labeled PGC1α co-activator peptide (5Fam-EEPSLLKKLLLAPA-OH) (peptide)
peptide: 5Fam-EEPSLLKKLLLAPA-OH
notes: the validation report numbers the modelled residues P141-A152 (D2:p5); also called PGC1α peptide; fluorophore-labeled PGC1α peptide; source: synthetic peptide; bought: New England Peptide
In the case of B1, in assay [3], the Kd amounted to 6800 ± 2000 nM.

B2: synthetic peptide representing the human PGC1α co-activator (H3N-EEPSLLKKLLLAPA-OH) (peptide)
peptide: H-EEPSLLKKLLLAPA-OH
notes: Unlabelled peptide used for co-crystallisation, free N- and C-termini as printed; also called PGC1α peptide; source: synthetic peptide, bought: New England Peptide
As to B2, in assay [4], the binding result is recorded as “binds”.

B3: N-terminal 5Fam-labeled PGC1α co-activator peptide (5Fam-EEPSLLKKLLLAPA-OH) (peptide)
peptide: 5Fam-EEPSLLKKLLLAPA-OH
notes: also called fluorophore-labeled PGC1α peptide; fluorescently labeled peptide; source: synthetic peptide, bought: New England Peptide
For the molecule B3, the Kd in assay [5] was over 42000 nM; in assay [6], 7700 ± 1400 nM.
